The record followed here is BindingDB's records for doi:10.1038/nchembio.307 (Harvard Medical School, 2010).

This assay concerns the target T1, Amine oxidase [flavin-containing] B (Homo sapiens, UniProt P27338).
T1 sequence (P27338 whole entry): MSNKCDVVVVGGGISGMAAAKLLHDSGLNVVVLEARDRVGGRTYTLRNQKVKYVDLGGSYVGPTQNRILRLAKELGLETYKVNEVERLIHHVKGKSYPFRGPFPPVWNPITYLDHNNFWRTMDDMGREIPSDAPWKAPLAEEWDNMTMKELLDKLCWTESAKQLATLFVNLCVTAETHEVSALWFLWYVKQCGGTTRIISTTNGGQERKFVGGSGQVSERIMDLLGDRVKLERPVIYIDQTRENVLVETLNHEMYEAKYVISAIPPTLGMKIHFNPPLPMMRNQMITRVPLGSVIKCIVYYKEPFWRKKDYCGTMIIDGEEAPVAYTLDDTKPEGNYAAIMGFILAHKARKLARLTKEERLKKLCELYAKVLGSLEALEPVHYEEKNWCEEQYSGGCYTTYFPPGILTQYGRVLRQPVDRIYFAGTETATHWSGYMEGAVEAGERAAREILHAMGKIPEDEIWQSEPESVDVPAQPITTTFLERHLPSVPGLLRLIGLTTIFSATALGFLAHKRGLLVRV
Put plainly: MAO-B Enzymatic Assay. The text has this:
Momoamine oxidase type B(MAO-B) activity in vitro assay using molecules that caused a photomotor response (PMR) "magnitude stimulant' (MAG) phenotype characterized by increased PMR excitation magnitude.

In the case of `CC(C)(C)OC(=O)NCCC(=O)Oc1ccc(C(=O)Oc2ccc3c4c(c(=O)oc3c2)CCC4)cc1Cl` [MAG-3], the IC50 is 1 µM. `CC(C)(C)OC(=O)NCCC(=O)Oc1ccc(C(=O)Oc2ccc3c4c(c(=O)oc3c2)CCCC4)cc1Cl` [MAG-5]: the IC50 was determined as 10 µM. `O=C(CNC(=O)OCc1ccccc1)Oc1ccc(C(=O)Oc2ccc3c4c(c(=O)oc3c2)CCC4)cc1Cl` [MAG-6] showed an IC50 of 10 µM. Molecule `CC(C)(C)OC(=O)NCC(=O)Oc1ccc(C(=O)Oc2ccc3c4c(c(=O)oc3c2)CCC4)cc1Cl` [MAG-7] returned an IC50 of 0.5 µM.
